Reference: US4046897A, “5-Mercaptopyridoxine alkanesulfonates and methods of use and pharmaceutical compositions” (Merck & Co., Inc., priority 1976, dated 1977)
Counter-ions that a name gives are not always drawn.

Experiment: Comparison of thermal stability of 5-MP salts (pure unformulated compound, colorimetric assay for intact thiol group)
Type: physicochemical
Details: for Thermal Stability % Remaining: pure unformulated salt
Experimental: Thus, in order to evaluate the relative stability of several salts of 5-mercaptopyridoxine, the test salts selected (i.e., the ethane-1,2-disulfonate, the phosphate, the sulfamate, the nitrate and the hydrochloride) were subjected to accelerated conditions of high temperature as the pure, unformulated, compound. The high temperature date obtained at 80° C. and at 105° C. is conventionally used in the pharmaceutical industry to screen compounds in as short a time as possible. Where a number of derivatives or salts are available, comparative data can be obtained and the test compounds can be ranked in an expected order of stability. The thermally stressed salts were assayed colorimetrically for intact thiol group. The ethanedisulfonate, hydrochloride and sulfamate salts also were subjected to NMR analysis to confirm the chemical analysis. The NMR data supports the chemical data.

Compound | Thermal Stability % Remaining (80° C, 1 week, 10080 min) [%] | Thermal Stability % Remaining (80° C, 3 weeks, 30240 min) [%] | Thermal Stability % Remaining (105° C, 3 days, 4320 min) [%] | Thermal Stability % Remaining (105° C, 7 days, 10080 min) [%] | relative thermal/chemical stability among 5-MP salts (in words) (at the temperatures employed (80° C and 105° C)) | Thermal Stability % Remaining (80° C, 1 week, 10080 min, hydrochloride) [%] | Thermal Stability % Remaining (80° C, 3 weeks, 30240 min, hydrochloride) [%] | Thermal Stability % Remaining (105° C, 3 days, hydrochloride, 4320 min) [%]
Cc1ncc(CS)c(CO)c1O [Ethanedisulfonate, Bis(2-methyl-3-hydroxy-4-hydroxymethyl-5-mercaptomethyl-pyridinium) ethane-1,2-disulfonate] | 101.0 | 100.2 | 97.3 | 99.4 | most stable salt | – | – | –
Cc1ncc(CS)c(CO)c1O [Hydrochloride, 5-mercaptopyridoxine hydrochloride] | – | – | – | – | – | 70.5 | 57.3 | 57.3
Cc1ncc(CS)c(CO)c1O [Nitrate] | 87.2 | – | – | – | – | – | – | –
Cc1ncc(CS)c(CO)c1O [Phosphate] | – | – | 93.0 | 58.0 | – | – | – | –
Cc1ncc(CS)c(CO)c1O [Sulfamate] | 94.0 | 75.7 | 13.0 | 8.8 | – | – | – | –
